{"source": "patent US20220295833A1", "about": "“SWEETENER BLENDS WITH IMPROVED TASTE” (The Coca-Cola Company, priority 2019, published 2022)", "origin": "cited, not measured here", "data": [{"smiles": "C=C1C[C@@]23CC[C@H]4[C@@](C)(CCC[C@@]4(C)C(=O)O[C@@H]4O[C@H](CO)[C@@H](O)[C@H](O)[C@H]4O)[C@@H]2CC[C@]1(O[C@@H]1O[C@H](CO)[C@@H](O)[C@H](O[C@@H]2O[C@H](CO)[C@@H](O)[C@H](O)[C@H]2O)[C@H]1O[C@@H]1O[C@H](CO)[C@@H](O)[C@H](O)[C@H]1O)C3", "note": "[Rebaudioside A]", "values": [{"measurement": "aqueous solubility", "value": "about 0.8 wt %"}]}]}
